Laboratory results: paper PMC9919699, “A Comprehensive Approach to Derivatization: Elemental Composition, Biochemical, and In Silico Studies of Metformin Derivatives Containing Copper and Zinc Complexes” (Molecules, 2023)
Read-outs that look alike come from different tables or passages of the source.

Assays:
α-glucosidase = α-glucosidase enzyme inhibition assay (starch substrate, anthrone reagent, 640 nm); type: biochemical
Experimental: The α-glucosidase-inhibitory activity of all derivatives of metformin was tested using the method previously described. Three test tubes were marked as test (T), blank (B), and control (C). Then, 200 µL of substrate (starch) and enzyme (α-glucosidase) was added to test tubes T and C. The contents were mixed well, and then the test tubes were incubated at 37 °C for 30 min. After incubation, trichloroacetic acid was added to all test tubes, which were then centrifuged for 10 min. Free glucose was available after the reaction with anthrone reagent (1.5 mL). The contents in the test tubes were boiled for 15 min, and the absorbance was read at a wavelength at 640 nm. The percentage inhibition was calculated using the following formula:Percentage inhibition = OD of control − OD of test tube/OD of control × 100.

α-amylase = α-amylase enzyme inhibition assay (starch, dinitro-salicylic acid, 540 nm); type: biochemical
Experimental: All derivatives of metformin were analyzed for serum amylase inhibitory activity using the Yukihoko Hara method. Three test tubes were labeled as blank (B), test (T), and control (C). Then, 2.5 mL of phosphate buffer (pH 6.8) was added to each test tube. Next, 1 mL of starch and 1 mL of 2 N sodium chloride solution were added to each test tube. The test tubes were incubated at 37 °C for 10 min. After incubation, 0.5 mL of derivatives was added to test tube T, followed by 0.2 mL of enzyme (α-amylase). All contents were mixed well, and then the tube was incubated at 37 °C for 10 min. In the control test tube, normal saline (2 N), starch solution (1 mL), and enzyme solution (0.2 mL) were added before incubating at 37 °C for 10 min. In the blank test tube, only 5.7 mL of distilled water was added. Dinitro-salicylic acid (0.2 mL) was added to all test tubes. The contents were mixed well, and the test tubes were kept in a boiling water bath for 15 min. The intensity of reddish orange was read at 540 nm. The percentage inhibitory action of serum amylase was calculated using the following formula:Percentage inhibition = OD of control − OD of test tube/OD of control × 100.

[1] = 250 µg/mL, Table 4 (Met series)
[2] = 500 µg/mL, Table 4 (Met series)
[3] = 1000 µg/mL, Table 4 (Met series)
[4] = Table 4 (Met series), read-out: IC50
[5] = 250 µg/mL, Table 7 (Met series)
[6] = 500 µg/mL, Table 7 (Met series)
[7] = 1000 µg/mL, Table 7 (Met series)
[8] = Table 7 (Met series), read-out: IC50
[9] = 250 µg/mL, Table 5 (MCu series)
[10] = 500 µg/mL, Table 5 (MCu series)
[11] = 1000 µg/mL, Table 5 (MCu series)
[12] = Table 5 (MCu series), read-out: IC50
[13] = 250 µg/mL, Table 8 (MCu series)
[14] = 500 µg/mL, Table 8 (MCu series)
[15] = 1000 µg/mL, Table 8 (MCu series)
[16] = Table 8 (MCu series), read-out: IC50
[17] = 250 µg/mL, Table 6 (MZn series)
[18] = 500 µg/mL, Table 6 (MZn series)
[19] = 1000 µg/mL, Table 6 (MZn series)
[20] = 250 µg/mL, Table 9 (MZn series)
[21] = 500 µg/mL, Table 9 (MZn series)
[22] = 1000 µg/mL, Table 9 (MZn series)
[23] = Table 6 (MZn series), read-out: IC50
[24] = Table 9 (MZn series), read-out: IC50

Structure (SMILES)	% Inhibition (α-glucosidase; [1]) [%]	% Inhibition (α-glucosidase; [2]) [%]	% Inhibition (α-glucosidase; [3]) [%]	% Inhibition (α-amylase; [5]) [%]	% Inhibition (α-amylase; [6]) [%]	% Inhibition (α-amylase; [7]) [%]	IC50 (α-amylase; [8]) [µM]	% Inhibition (α-glucosidase; [9]) [%]	% Inhibition (α-glucosidase; [10]) [%]	% Inhibition (α-glucosidase; [11]) [%]	% Inhibition (α-amylase; [13]) [%]	% Inhibition (α-amylase; [14]) [%]	% Inhibition (α-amylase; [15]) [%]	IC50 (α-amylase; [16]) [µM]	% Inhibition (α-glucosidase; [17]) [%]	% Inhibition (α-glucosidase; [18]) [%]	% Inhibition (α-glucosidase; [19]) [%]	% Inhibition (α-amylase; [20]) [%]	% Inhibition (α-amylase; [21]) [%]	% Inhibition (α-amylase; [22]) [%]	further results
CN(C)C(=N)N=C(N)N [Met, N,N-dimethyltriimidodicarbonic diamide, reference compound]	41.73 ± 0.10	52.83 ± 0.11	81.30 ± 0.10	55.27 ± 0.20	63.18 ± 0.20	85.25 ± 0.32	9400	–	–	–	–	–	–	–	–	–	–	–	–	–	IC50 (α-glucosidase; [4]): 4800 µM
CC(C)=NC(=N)NC(=N)N(C)C.CC(C)=NC(=N)NC(=N)N(C)C.O.O.O.O.O.O=S(=O)([O-])[O-].[Cu+2] [MCu5]	–	–	–	–	–	–	–	21.73 ± 0.12	38.21 ± 0.18	56.45 ± 0.20	12.46 ± 0.23	38.44 ± 0.40	61.38 ± 0.23	320	–	–	–	–	–	–	IC50 (α-glucosidase; [12]): 460 µM
C[C@H]1O[C@H](O[C@H]2[C@H](O)[C@@H](O)[C@@H](O[C@H]3[C@H](O)[C@@H](O)C(O)O[C@@H]3CO)O[C@@H]2CO)[C@H](O)[C@@H](O)[C@@H]1N[C@H]1C=C(CO)[C@@H](O)[C@H](O)[C@H]1O (stereo partly shown) [Acarbose, reference compound]	41.84 ± 0.08	66.79 ± 0.09	89.01 ± 0.01	49.65 ± 0.15	72.33 ± 0.20	91.58 ± 0.36	–	42.65 ± 0.09	62.41 ± 0.28	91.83 ± 0.18	42.73 ± 0.46	67.52 ± 0.34	92.73 ± 0.46	–	54.12 ± 0.09	74.52 ± 0.19	98.60 ± 0.10	49.59 ± 0.34	72.73 ± 0.46	91.71 ± 0.46	–
CN(C)C(=N)NC(=N)N=Cc1ccccc1.CN(C)C(=N)NC(=N)N=Cc1ccccc1.O.O.O.O.O.O=S(=O)([O-])[O-].[Zn+2] [MZn1]	–	–	–	–	–	–	–	–	–	–	–	–	–	–	54.74 ± 0.15	62.48 ± 0.19	77.57 ± 0.20	31.46 ± 0.34	55.54 ± 0.34	82.60 ± 0.40	IC50 (α-glucosidase; [23]): 700 µM; IC50 (α-amylase; [24]): 750 µM
CN(C)C(=N)NC(=N)N=Cc1ccccc1.CN(C)C(=N)NC(=N)N=Cc1ccccc1.O.O.O.O.O.O=S(=O)([O-])[O-].[Cu+2] [MCu1]	–	–	–	–	–	–	–	44.24 ± 0.10	61.46 ± 0.31	81.13 ± 0.08	19.44 ± 0.46	43.71 ± 0.17	73.31 ± 0.51	990	–	–	–	–	–	–	IC50 (α-glucosidase): 421.7 mg/L; IC50 (α-glucosidase; [12]): 600 µM
CN(C)C(=N)NC(=N)N=Cc1ccccc1O.CN(C)C(=N)NC(=N)N=Cc1ccccc1O.O.O.O.O.O.O=S(=O)([O-])[O-].[Zn+2] [MZn2]	–	–	–	–	–	–	–	–	–	–	–	–	–	–	43.55 ± 0.20	57.61 ± 0.15	71.37 ± 0.30	34.46 ± 0.23	69.32 ± 0.46	86.58 ± 0.40	IC50 (α-glucosidase; [23]): 600 µM; IC50 (α-amylase): 484.9 mg/L; IC50 (α-amylase; [24]): 670 µM
CC(C)=NC(=N)NC(=N)N(C)C [Met5, N,N-dimethyl-N′-(propan-2-ylidene)triimidodicarbonic diamide]	22.85 ± 0.15	39.43 ± 0.19	53.44 ± 0.15	15.61 ± 0.20	39.48 ± 0.32	63.47 ± 0.23	740	–	–	–	–	–	–	–	–	–	–	–	–	–	IC50 (α-glucosidase; [4]): 2000 µM
CN(C)C(=N)NC(=N)N=CC=Cc1ccccc1.CN(C)C(=N)NC(=N)N=CC=Cc1ccccc1.O.O.O.O.O.O=S(=O)([O-])[O-].[Zn+2] [MZn3]	–	–	–	–	–	–	–	–	–	–	–	–	–	–	50.22 ± 0.15	58.18 ± 0.21	68.63 ± 0.20	13.59 ± 0.34	41.55 ± 0.34	78.57 ± 0.28	IC50 (α-glucosidase; [23]): 540 µM; IC50 (α-amylase; [24]): 780 µM
CN(C)C(=N)NC(=N)N=C(c1ccccc1)c1ccccc1 [Met7, N′-(diphenylmethylidene)-N,N-dimethyltriimidodicarbonic diamide]	27.42 ± 0.32	41.84 ± 0.15	55.77 ± 0.01	24.25 ± 0.20	34.45 ± 0.26	48.33 ± 0.51	1400	–	–	–	–	–	–	–	–	–	–	–	–	–	IC50 (α-glucosidase; [4]): 900 µM
C=NC(=N)NC(=N)N(C)C [Met4, N,N-dimethyl-N′-methylidenetriimidodicarbonic diamide]	17.49 ± 0.29	25.77 ± 0.35	43.72 ± 0.26	15.48 ± 0.15	37.65 ± 0.19	55.48 ± 0.23	700	–	–	–	–	–	–	–	–	–	–	–	–	–	–
CN(C)C(=N)NC(=N)N=Cc1ccccc1O.CN(C)C(=N)NC(=N)N=Cc1ccccc1O.O.O.O.O.O.O=S(=O)([O-])[O-].[Cu+2] [MCu2]	–	–	–	–	–	–	–	31.13 ± 0.04	48.50 ± 0.22	77.32 ± 0.17	29.52 ± 0.28	44.56 ± 0.34	77.56 ± 0.34	790	–	–	–	–	–	–	–
CN(C)C(=N)NC(=N)N=C(c1ccccc1)C(O)c1ccccc1 (stereo not shown) [Met9, N′-[(1Z)-2-hydroxy-1,2-diphenylethylidene]-N,N-dimethyltriimidodicarbonic diamide]	10.79 ± 0.10	29.86 ± 0.10	39.09 ± 0.05	5.41 ± 0.20	8.61 ± 0.25	19.71 ± 0.46	790	–	–	–	–	–	–	–	–	–	–	–	–	–	–
C/C(=N\C(=N)NC(=N)N(C)C)c1ccccc1 [Met6, N,N-dimethyl-N′-[(1E)-1-phenylethylidene]triimidodicarbonic diamide]	16.41 ± 0.19	28.86 ± 0.15	51.47 ± 0.26	18.48 ± 0.26	33.35 ± 0.20	41.34 ± 0.17	1700	–	–	–	–	–	–	–	–	–	–	–	–	–	IC50 (α-glucosidase; [4]): 1300 µM
CC(=NC(=N)NC(=N)N(C)C)c1ccccc1.CC(=NC(=N)NC(=N)N(C)C)c1ccccc1.O.O.O.O.O.O=S(=O)([O-])[O-].[Zn+2] [MZn6]	–	–	–	–	–	–	–	–	–	–	–	–	–	–	36.67 ± 0.26	41.26 ± 0.32	44.51 ± 0.19	18.76 ± 0.17	33.29 ± 0.46	51.47 ± 0.28	IC50 (α-amylase; [24]): 540 µM
CN(C)C(=N)NC(=N)N=C(c1ccccc1)c1ccccc1.CN(C)C(=N)NC(=N)N=C(c1ccccc1)c1ccccc1.O.O.O.O.O.O=S(=O)([O-])[O-].[Cu+2] [MCu7]	–	–	–	–	–	–	–	29.47 ± 0.18	37.37 ± 0.30	48.29 ± 0.28	15.37 ± 0.23	38.31 ± 0.46	55.43 ± 0.23	200	–	–	–	–	–	–	IC50 (α-glucosidase; [12]): 320 µM
CN(C)C(=N)NC(=N)N=CC=Cc1ccccc1.CN(C)C(=N)NC(=N)N=CC=Cc1ccccc1.O.O.O.O.O.O=S(=O)([O-])[O-].[Cu+2] [MCu3]	–	–	–	–	–	–	–	29.74 ± 0.08	49.26 ± 0.17	78.23 ± 0.17	25.41 ± 0.23	38.37 ± 0.40	69.40 ± 0.23	790	–	–	–	–	–	–	IC50 (α-glucosidase; [12]): 570 µM
